Measurements as given in patent publication US11007273B2, “Prochelators as targeted prodrugs for prostate cancer and methods of making and using same” (Duke University, priority 2017, dated 2021).
Like-named read-outs stand apart in the source and are kept apart here.

Tests used:
[1] = tested on: 22Rv1, LNCaP, PC3, PWR-1E and MCF-7 cells; assay: Antiproliferation assay across all cell lines; format: cell-based; settings: Homo sapiens, 72 h
Experimental: (§1) Antiproliferation assay: To determine the amount of Cu(II) required for cell studies a checkerboard assay was performed by varying the prodrug or drug concentration and Cu(II) concentration. 22RV1, LNCaP, PC3, MCF-7, and PWR-1E (5,000 cells/well) were seeded in 96-well plates with regular media (22Rv1, LNCaP, and PC-3 in RPMI with 10% FBS; MCF-7 in DMEM with 10% FBS; PWR-1E in Keratinocyte-SFM) and let adhere for 24 h. The following day, the media was replaced with serum free media and cells were treated as indicated for an additional 24 h or 72 h. Cell proliferation was measured using a fluorometric resazurin reduction method. 20 μL of 700 μM Resazurin (Sigma R7017) was added in each well and incubated at 37° C. for 2 h. Fluorescence at 580 nm was measured by exciting at 555 nm with a plate reader. Each experiment was performed in triplicate, and the experiments were repeated three times. Viability vs drug concentration plot from a representative experiment are shown with standard deviation from the experiment as error bar. The error bar in IC50 values represents standard deviation from three different experiments.

[2] = tested on: mCRPC patients; settings: phase 1, mCRPC patients; cited from earlier work
[3] = tested on: PWR-1E cells; assay: cells; format: cell-based, human; settings: Homo sapiens, PWR-1E, PWR-1E
Experimental: as §1

[4] = tested on: LNCaP cells; assay: cells; format: cell-based, human; settings: Homo sapiens, LNCaP, LNCaP
Experimental: as §1

[5] = tested on: 22Rv1 cells; assay: cells; format: cell-based, human; settings: for IC50: Homo sapiens, 22Rv1
Experimental: as §1

[6] = tested on: PC-3 cells; assay: cells; format: cell-based, human; settings: Homo sapiens, PC-3
Experimental: as §1

[7] = tested on: MCF-7 cells; assay: cells; format: cell-based, human; settings: Homo sapiens, MCF7, MCF-7
Experimental: as §1

[8] = target: GGT (Homo sapiens, UniProt P19440); assay: Competition experiments vs. γE-pNA for GGT; format: biochemical; settings: vs E-pNA; PBS, pH 7.4, 1 mM GlyGly
GGT, sequence (P19440 whole entry, species assumed): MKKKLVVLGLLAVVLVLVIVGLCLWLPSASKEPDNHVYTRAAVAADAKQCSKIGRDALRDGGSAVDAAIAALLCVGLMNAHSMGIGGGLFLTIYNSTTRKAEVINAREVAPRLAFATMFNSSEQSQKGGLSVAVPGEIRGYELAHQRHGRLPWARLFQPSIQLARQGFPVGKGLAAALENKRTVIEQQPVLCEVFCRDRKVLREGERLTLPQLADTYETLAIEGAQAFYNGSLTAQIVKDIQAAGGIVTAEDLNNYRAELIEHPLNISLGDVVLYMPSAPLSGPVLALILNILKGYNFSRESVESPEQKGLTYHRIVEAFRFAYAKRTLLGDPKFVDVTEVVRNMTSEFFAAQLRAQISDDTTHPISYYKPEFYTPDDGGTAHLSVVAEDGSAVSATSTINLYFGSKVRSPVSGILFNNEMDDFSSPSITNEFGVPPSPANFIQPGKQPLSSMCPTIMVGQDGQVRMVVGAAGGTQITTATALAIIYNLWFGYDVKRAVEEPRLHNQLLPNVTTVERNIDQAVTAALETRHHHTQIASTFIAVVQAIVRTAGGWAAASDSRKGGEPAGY
Experimental: Competition experiments vs. γE-pNA for GGT: To perform the inhibition study, a serial dilution of γE-pNA was performed ranging from 1 mM to 3 μM in PBS with 1 mM Gly-Gly (dilution factor=0.5; pH 7.4; 10% DMSO; 100 μL) using a clear, flat bottom 96 well plate. GGT binding molecules, as indicated, were added to separate sets of triplicate wells to reach a final concentration of 10 and 100 μM. Before the addition of enzyme, the plate was cooled to 4° C. for 15 min. To initiate the assay, 10 μL of 50 U/L GGT was added to each well and an initial absorbance scan was performed. Subsequent scans were performed every 10 min for ˜2 h. In between each scan, the plates were stored at 37° C. in a humidified incubator to reduce solvent evaporation. The experiment was repeated in triplicate.
To probe the reactivity of Glu-DTC in comparison to the enzyme's natural substrate GSH, competition experiments were conducted against the colorimetric substrate L-glutamic acid γ-(p-nitroanilide) [E-pNA]. The colorimetric assay involves monitoring p-nitroaniline release by absorbance at 405 nm upon reaction of the probe substrate E-pNA with GGT in the presence of an inhibiting substrate, either Glu-DTC (FIG. 15A) or GSH (FIG. 15C).

[9] = 24 h, 24 h, 1 μM CuSO4, read-out: IC50 with 1 μM CuSO4
[10] = 72 h, 72 h, 1 μM CuSO4, read-out: IC50 with 1 μM CuSO4
[11] = Table 1, time and Cu not given, read-out: IC50 values
[12] = 24 h, 1 μM CuSO4, read-out: IC50 with 1 μM CuSO4
[13] = 72 h, 1 μM CuSO4, read-out: IC50 with 1 μM CuSO4

Compound: CCN(CC)C(=S)SSC(=S)N(CC)CC [DSF, disulfiram, reference compound]
- IC50 ([1]; 1 μM CuSO4, read-out: IC50 range across all cell lines): 40 to 150 nM
- IC50 ([1]; DSF is a dimer of DTC, read-out: IC50 per monomer): 80 to 300 nM
- patients who developed grade 3 adverse events [2]: 6 of the 12
- toxicity and efficacy outcome [2]: significant toxicity without improvement in efficacy
- IC50 [3, 9]: 80 ± 20 nM
- IC50 [3, 10]: 70 ± 10 nM
- IC50 [3, 11]: 72 nM
- IC50 [4, 9]: 130 ± 20 nM
- IC50 [4, 10]: 140 ± 10 nM
- IC50 [4, 11]: 120 nM
- IC50 [5, 12]: 72 ± 10 nM
- IC50 [5, 13]: 92 ± 5 nM
- IC50 [5, 11]: 65 nM
- Cu(II) added to the growth medium required for antiproliferative activity ([5]; checkerboard pilot studies in 22Rv1 cells): 300 nM
- IC50 [6, 12]: 70 ± 10 nM
- IC50 [6, 13]: 57 ± 10 nM
- IC50 [6, 11]: 66 nM
- IC50 [7, 12]: 180 ± 10 nM
- IC50 [7, 13]: 47 ± 2 nM
- IC50 [7, 11]: 130 nM

Compound: N[C@@H](CCC(=O)N[C@@H](CS)C(=O)NCC(=O)O)C(=O)O [GSH, glutathione, reference compound]
- Ki [8]: 99000 ± 7000 nM
